Experimental data taken from patent publication US20080280954A1, “Method of Improving Wakefulness” (VANDA PHARMACEUTICALS, INC, priority 2005, published 2008).
Read-outs that look alike come from different tables or passages of the source.

Columns and labels:
[1] = system: sleep-wakefulness cycle in rats
Procedure: In a first set of experiments, the oral (p.o.) and subcutaneous (s.c.) actions of Compound A were evaluated in the sleep-wakefulness cycle in rats. For this purpose the salt forms multifumarate (mfu) or fumarate (fu) were used.
The experiments were carried out in nonanesthetized unrestrained male Wistar rats prepared with chronically implanted electrodes for the recording of the electrocorticogram (ECoG). The animals were caged in a room, maintained at a constant temperature of 22° C. and artificially lighted for 12 hours daily. Before beginning of the experiment, the animals were given a 1 to 3 day period of acclimatization in the recording cages and had complete freedom of movement even when the recording cables were attached. The ECOG recordings were made continuously during 22 to 23-hours period, 15 min after drug administration. Each animal served as its own control. In one experiment, recordings of EcoG were also obtained after administration of distilled water (vehicle used with Compound A) for comparison with no administration, or administration of Compound A.

[2] = system: sleep-wakefulness cycle in rats with lesions of the nucleus basalis of Meynert (NBM) and locus coeruleus (LC)
Procedure: In a second set of experiment, oral actions of Compound A were evaluated in the sleep-wakefulness cycle in rats with lesions of the nucleus basalis of Meynert (NBM) and locus coeruleus (LC). For this purpose the salt form multifumarate (mfu) was used.
Male rats were used. They were anesthetized with pentobarbital (50 mg/kg i.p.) and positioned in a stereotaxic apparatus with the upper incisor bar set 5 mm (locus coeruleus, LC) or 3.3 mm (Nucleus basalis of Meynert, NBM) below the interaural line. The lesions were carried out with a radio frequency lesion generator at 60° C. in 10 sec. A corresponding group of sham lesioned rats was carried out. The animals were individually kept in single cage during 6 months after the lesions. Five months after lesion, cortical electrodes were implanted. The animals were caged in a room, maintained at a constant temperature of 22° C. and artificially lighted for 12 hours daily. Before beginning of the experiment, the animals were given a 1 day period of acclimatization in the recording cages. These were tall plastic cylinders within the animals had complete freedom of movement even when the recording cables were attached. ECOG recordings were made continuously during 22-hours period/day, 15 min after the installation of the animal or 15 min after drug administration.
Four groups of animals were studied (A1-4), and statistical analysis (T-test, p<0.05) was performed between the different groups.
A1: 5 lesioned animals, which had received 35 days after lesion 3 mg/kg p.o. of
Compound A during 5 days. Implementation of electrodes 5 months later.
Recording of ECOG on the 22d and 23d days after implantation.
A2: Same as A1 but treated with vehicle instead of Compound A.
A3: S Same as A1 but with Sham rats instead of lesioned animals.
A4: Same as A3 but treated with vehicle instead of Compound A.

[3] = 10 mg/kg p.o., 7-11 hours after administration
[4] = 30 mg/kg p.o., first 4 hours of recording
[5] = 3 mg/kg p.o. (mfu) during 5 days, 35 days after lesion, all recording periods

Question: Which results are given for `Cc1nccn1Cc1ccccn1` [Compound A, [2-(2-methylimidazol-1-yl)methyl]pyridine]?
Answer: REM sleep duration ([1]; 1 mg/kg s.c., first 2 hours): reduced; wakefulness ([1]; 1 mg/kg s.c., first 4 hours): enhanced; slow-wave sleep (SWS) sleep onset ([1]; 3 mg/kg p.o.): significantly delayed; active waking ([1]; 3 mg/kg p.o., between 0-4 and 7-11 hours): tended to be increased; REM sleep duration ([1]; 3 mg/kg p.o., first 4 hours): reduced; classical sleep ([1]; 3 mg/kg p.o., first 4 hours): reduced; wakefulness ([1]; 3 mg/kg p.o., first 4 hours): increase; active waking ([1]; 3 mg/kg p.o., last recording interval 18.75-23 hours): significantly increased; REM sleep onset ([1]; 10 mg/kg p.o.): strongly delayed; SWS onset ([1]; 10 mg/kg p.o.): tended to also delay; active waking ([1]; 10 mg/kg p.o., 0-4 hours after administration): significantly increased; REM sleep [1, 3]: tended to be increased; SWS duration [1, 3]: decreased; waking time [1, 3]: significantly increased; classical sleep ([1]; 10 mg/kg p.o., during 3 hours): decreased; waking time ([1]; 10 mg/kg p.o., first 6 hours): tended to increase; REM sleep duration ([1]; 10 mg/kg p.o., for several hours): significantly reduced; REM sleep onset ([1]; 30 mg/kg p.o.): strongly delayed; SWS onset ([1]; 30 mg/kg p.o.): strongly delayed; time the decrease of REM sleep lasted ([1]; 30 mg/kg p.o.): about 11 hours; time the increase of wakefulness lasted ([1]; 30 mg/kg p.o.): about 9 hours; REM sleep duration ([1]; 30 mg/kg p.o., 4-7 hours after administration): decreased; REM sleep duration [1, 4]: decreased; SWS duration [1, 4]: decreased; waking time [1, 4]: increased; changes in the rat nycthemeral rhythm ([1]; 3, 10 and 30 mg/kg (mfu) p.o., 3 and 10 mg/kg (fu) p.o., 1, 3 and 10 mg/kg (mfu) s.c., dose dependent): significant changes; effects on sleep-wakefulness cycle compared with oral administration ([1]; 3 and 10 mg/kg s.c.): nearly the same effects as by oral administration; effect availability (s.c. versus p.o. action) ([1]; action quite similar by s.c. and p.o. administration): good; effects on the sleep wakefulness cycle compared with the mfu form ([1]; fu salt form, 3 and 10 mg/kg p.o.): same effects; lesion-induced decrease of classical sleep [2, 5]: partly prevented; lesion-induced increase of wakefulness [2, 5]: partly prevented; alterations of the sleep-wakefulness cycle due to the lesions ([2]; 3 mg/kg p.o. (mfu) during 5 days, 35 days after lesion, recording more than 5 months later, all recording periods): important reduction; nycthemeral cycle abnormalities induced by simultaneous LC+NBM lesions ([2]; several months after last administration): reduce
